What was measured:
[1] = biological target: T1, human myosin-6 (M6-2R) (Homo sapiens, UniProt Q9UM54); experiment: stopped-flow, ATP binding to pyrene-acto•M6-2R; steady-state ATPase turnover; set-up: gene MYO6; M6-2R (human myosin-6 motor domain, amino acids 1-816, fused to artificial lever); with F-actin (pyrene-actin)
Excerpt: stopped-flow, ATP binding to pyrene-acto•M6-2R; steady-state ATPase turnover on human myosin-6 (M6-2R) | ATP binding to the complex formed by pyrene–actin and M6-2R show a linear dependence on [ATP]

[2] = biological target: T1, human myosin-6 (M6-2R); experiment: actin-activated ATPase assay (NADH-coupled), biphasic inhibition; binding also by MST (data not shown); format: biochemical; set-up: gene MYO6; amino acids 1-816 of human myosin-6 motor domain fused to an artificial lever derived from Dictyostelium discoideum α-actinin (M6-2R); with F-actin (rabbit skeletal muscle); calmodulin associated with insert-2
[3] = biological target: T1, human myosin-6 (M6-2R); experiment: stopped-flow fluorescence, second-order binding rate constant K1k+[…]; set-up: gene MYO6; M6-2R (human myosin-6 motor domain, amino acids 1-816, fused to artificial lever)
[4] = biological target: T2, human myosin-6 (Homo sapiens, UniProt Q9UM54); experiment: myosin-6 ATPase assay; MST affinity ranking; format: biochemical
T2 construct: gene MYO6; human myosin-6 motor domain construct M6-2R (amino acids 1-816)
T2 sequence (Q9UM54 1-816): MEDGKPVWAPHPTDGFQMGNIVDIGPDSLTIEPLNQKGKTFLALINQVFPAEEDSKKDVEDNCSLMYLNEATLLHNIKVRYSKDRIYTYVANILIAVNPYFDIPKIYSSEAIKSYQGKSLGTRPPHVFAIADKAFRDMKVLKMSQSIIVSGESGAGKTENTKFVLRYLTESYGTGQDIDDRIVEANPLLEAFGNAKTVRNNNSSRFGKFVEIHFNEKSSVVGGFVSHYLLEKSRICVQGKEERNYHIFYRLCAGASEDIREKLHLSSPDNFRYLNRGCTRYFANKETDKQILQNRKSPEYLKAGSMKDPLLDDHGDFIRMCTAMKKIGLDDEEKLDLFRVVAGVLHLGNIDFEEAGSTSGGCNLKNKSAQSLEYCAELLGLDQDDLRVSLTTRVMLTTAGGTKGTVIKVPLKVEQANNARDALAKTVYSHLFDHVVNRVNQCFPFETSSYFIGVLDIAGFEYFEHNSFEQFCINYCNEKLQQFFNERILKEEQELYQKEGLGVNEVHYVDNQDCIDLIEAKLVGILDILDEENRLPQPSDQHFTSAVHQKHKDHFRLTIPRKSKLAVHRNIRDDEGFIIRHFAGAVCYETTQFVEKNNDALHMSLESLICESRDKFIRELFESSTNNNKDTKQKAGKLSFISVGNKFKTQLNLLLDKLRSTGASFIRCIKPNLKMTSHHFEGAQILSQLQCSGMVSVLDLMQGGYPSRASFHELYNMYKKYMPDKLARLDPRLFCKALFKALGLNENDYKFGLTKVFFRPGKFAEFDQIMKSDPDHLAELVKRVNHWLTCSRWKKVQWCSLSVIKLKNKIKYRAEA

[5] = biological target: T1, human myosin-6 (M6-2R); experiment: stopped-flow fluorescence, KD = k−D/k+D; format: binding; set-up: gene MYO6; M6-2R (human myosin-6 motor domain, amino acids 1-816, fused to artificial lever); conditions: read-out: Hs Myosin-6 ^a^, ^b

T1 sequence (Q9UM54 1-816): as above

`Nc1ncnc2c1ncn2[C@@H]1O[C@H](COP(=O)(O)OP(=O)(O)OP(=O)(O)O)[C@@H](O)[C@H]1O` [ATP] was tested, and the kon [1] was 11000 ± 300 M⁻¹ s⁻¹.
`Oc1c(I)cc(I)cc1I` [TIP, 2,4,6-triiodophenol] was tested, and the Ki [2] was 0.8 ± 0.5 µM.
For `CNc1ccccc1C(=O)O[C@H]1C[C@H](n2cnc3c(N)ncnc32)O[C@@H]1COP(=O)(O)OP(=O)(O)OP(=O)(O)O` [d-mantATP, 2′-deoxy-3′-O-(N′-methylanthraniloyl)adenosine-5′-O-triphosphate], the kon [3] was 50000 ± 10000 M⁻¹ s⁻¹.
For `Oc1c(Br)c(Br)c(Br)c(Br)c1Br` [pentabromophenol], the “myosin-6 ATPase assay; MST affinity ranking” value [4] was “Pentabromophenol and TIP inhibit myosin-6 ATPase activity in the low micromolar range”.
In the case of mantADP, the Kd [5] is reported as 2 ± 0.15 µM.

From PMC3527664, “Kinetic properties and small-molecule inhibition of human myosin-6” (Febs Letters, 2012)
